The record followed here is ChEMBL document CHEMBL4002625, “Synthesis and structure-activity relationship studies of phenolic hydroxyl derivatives based on quinoxalinone as aldose reductase inhibitors with antioxidant activity” (Bioorg Med Chem Lett, 2017).

Assay [1] is described as follows: Antioxidant activity assessed as DPPH radical scavenging activity at 100 uM after 240 mins by UV spectrophotometer relative to control. The format is functional.
The target in assay [2] is Aldo-keto reductase family 1 member B1 (Rattus norvegicus, UniProt P07943). Nature of the assay: Inhibition of rat lens ALR2 using D,L-glyceraldehyde as substrate assessed as decrease in NADPH oxidation preincubated for 10 mins followed by substrate addition measured for 4 mins by spectrophotometer.
Assay [3] can be described thus: Antioxidant activity assessed as DPPH radical scavenging activity at 50 uM after 240 mins by UV spectrophotometer relative to control. The format is functional. On the technique in general: The DPPH test is a chemical assay of radical scavenging.
A short description of assay [4]: Antioxidant activity assessed as DPPH radical scavenging activity at 10 uM after 240 mins by UV spectrophotometer relative to control. The class given is functional.

For `COc1ccc2nc(CCc3ccc(O)cc3)c(=O)n(CC(=O)O)c2c1`, in assay [1], the Activity was found to be 20.7%. Besides, the 50% inhibitory concentration (IC50) – broadly, the concentration that gives 50% inhibition – in assay [2] was found to be 508 nM.
Taken in the same sequence, the figures for `COc1ccc2c(c1)nc(CCc1ccc(O)c(OC)c1)c(=O)n2CC(=O)O` were 31.9% and 983 nM.
As for `COc1ccc2nc(CCc3ccccc3)c(=O)n(CC(=O)O)c2c1`, the IC50 in assay [2] was found to be 1300 nM.
On the same count and under the same terms, the result for `COc1ccc2nc(/C=C/c3ccccc3)c(=O)n(CC(=O)O)c2c1` reads 924 nM.
For `COc1ccc2nc(-c3cccc(O)c3)c(=O)n(CC(=O)O)c2c1`, in assay [1], the Activity came to 8.5%. For the same molecule, the half-maximal inhibitory concentration (IC50) in assay [2] came out at 3410 nM.
As for `COc1ccc2nc(-c3cc(O)ccc3O)c(=O)n(CC(=O)O)c2c1`, the Activity in assay [1] is 25.4%. Moreover, the 50% inhibitory concentration (IC50) in assay [2] was determined as 865 nM.
Take `COc1ccc2c(c1)nc(/C=C/c1ccc(O)cc1)c(=O)n2CC(=O)O`: the Activity in assay [3] worked out at 27.6%; in assay [1], 51.8%. Besides, the half-inhibitory concentration (IC50) in assay [2] stood at 98 nM.
For the molecule `COc1ccc2nc(CCc3ccc(O)c(OC)c3)c(=O)n(CC(=O)O)c2c1`, in assay [1], the Activity worked out at 28.3%. For the same molecule, in assay [2], the IC50 stood at 847 nM.
For `COc1ccc2nc(-c3ccc(O)cc3)c(=O)n(CC(=O)O)c2c1`, in that order: 12.3% and 2080 nM.
With `Cc1c(C)c2c(c(C)c1O)CCC(C)(C(=O)O)O2` (stereo not given), the Activity in assay [4] was determined as 89.3%; in assay [3] it was 92.7%; in assay [1] it was 96.5%.
Regarding `COc1ccc2nc(-c3ccccc3)c(=O)n(CC(=O)O)c2c1`, the IC50 in assay [2] came out at 5310 nM.
Consider `COc1ccc2nc(/C=C/c3ccc(O)cc3)c(=O)n(CC(=O)O)c2c1`, for which the Activity in assay [3] worked out at 34.3%; in assay [1], 59.2%. For the same molecule, the half-maximal inhibitory concentration (IC50) in assay [2] is 59 nM.
Turning to `COc1ccc2nc(-c3c(O)cc(O)cc3O)c(=O)n(CC(=O)O)c2c1`, the values for the Activity in assay [4], in assay [3] and in assay [1] were 40.6%, 69.3% and 80.6%, respectively. In assay [2], the IC50 came to 116 nM.
As to `O=C(O)Cn1c(=O)c(-c2ccccc2)nc2ccc(O)cc21`, the Activity in assay [1] stood at 19.1%. For the same molecule, in assay [2], the concentration for half-maximal inhibition (IC50) stood at 3950 nM.
In the case of `COc1ccc2nc(/C=C/c3ccc(O)c(OC)c3)c(=O)n(CC(=O)O)c2c1`, the Activity in assay [4] came out at 42.2%; in assay [3], 65.9%; in assay [1], 83.5%. For the same molecule, in assay [2], the concentration for half-maximal inhibition (IC50) is 210 nM.
Taken in the same sequence, the figures for `O=C(O)Cn1c(=O)c(/C=C/c2ccc(O)c(O)c2)nc2ccc(O)cc21` were 70.5%, 82.1%, 96.2% and 102 nM.
On to `COc1ccc2c(c1)nc(-c1ccccc1)c(=O)n2CC(=O)O`, for which the IC50 in assay [2] amounted to 6820 nM.
As to `COc1ccc2c(c1)nc(-c1c(O)cc(O)cc1O)c(=O)n2CC(=O)O`, the figures for the Activity in assay [4], in assay [3] and in assay [1] were 36.4%, 53.7% and 68.7%, respectively. The 50% inhibitory concentration (IC50) in assay [2] is 273 nM.
Regarding `O=C(O)Cn1c(=O)c(-c2ccccc2)nc2cc(O)ccc21`, the Activity in assay [1] was 15.8%. Further, the IC50 in assay [2] came out at 4290 nM.
As for `COc1ccc2c(c1)nc(/C=C/c1ccc(O)c(OC)c1)c(=O)n2CC(=O)O`, the Activity in assay [4] turned out to be 39.7%; in assay [3], 61.4%; in assay [1] it was 74.9%. Besides, the IC50 in assay [2] was determined as 185 nM.
Taken in the same sequence, the figures for `O=C(O)Cn1c(=O)c(/C=C/c2ccc(O)c(O)c2)nc2cc(O)ccc21` were 64.2%, 77.8%, 90.4% and 159 nM.
As to `COc1ccc2nc(-c3ccc(O)cc3O)c(=O)n(CC(=O)O)c2c1`, the Activity in assay [1] was 37.2%. In addition, the IC50 in assay [2] came to 179 nM.
